Converted amounts (≈) assume the structure as drawn. Where only a bound is given, the exact number is not on record here.

Holding throughout (type): functional
For test [1], the system named is Acinetobacter baumannii. Description: microbe, parasite or virus in culture. To be noted: ATCC 19606.
Description: Antimicrobial activity against Acinetobacter baumannii ATCC 19606 expressing open reading frame orf3 encoded efflux pump CraA by Etest
The test system of test [2] is Acinetobacter baumannii. Briefly: Antimicrobial activity against Acinetobacter baumannii JVAB01 expressing disrupted open reading frame orf3 mutant deficient in efflux pump CraA by Etest.
The subject of test [3] is Acinetobacter baumannii. Briefly: Antimicrobial activity against efflux pump CraA deficient Acinetobacter baumannii JVAB01 receiving pJV103 harboring open reading frame orf3 encoded efflux pump CraA by Etest.
The test system of test [4] is Acinetobacter baumannii. Briefly: Antimicrobial activity against Acinetobacter baumannii ATCC 19606 expressing open reading frame orf3 encoded efflux pump CraA in presence of efflux pump inhibitor phenyl-arginine-beta-naphthylamide by Etest.
For test [5], the system named is Acinetobacter baumannii. Briefly: Antimicrobial activity against Acinetobacter baumannii JVAB01 expressing disrupted open reading frame orf3 mutant deficient in efflux pump CraA in presence of efflux pump inhibitor phenyl-arginine-beta-naphthylamide by Etest.
For test [6], the system named is Acinetobacter baumannii. Description: Antimicrobial activity against efflux pump CraA deficient Acinetobacter baumannii JVAB01 receiving pJV103 harboring open reading frame orf3 encoded efflux pump CraA in presence of efflux pump inhibitor phenyl-arginine-beta-naphthylamide by Etest.

With `O=C(N[C@H](CO)[C@H](O)c1ccc([N+](=O)[O-])cc1)C(Cl)Cl` [CHLORAMPHENICOL], the MIC in test [1] is greater than 256 µg/mL; in test [2], 2 µg/mL (≈ 6.19 µM); in test [3], 192 µg/mL (≈ 594 µM); in test [4] it was 32 µg/mL; in test [5], 1.5 µg/mL; in test [6] it was 16 µg/mL.

For the compound `O=C(O)c1cn(C2CC2)c2cc(N3CCNCC3)c(F)cc2c1=O` [CIPROFLOXACIN], the MIC in test [1], in test [2] and in test [3] was 0.25 µg/mL (≈ 0.754 µM) throughout.

For the compound `CCC[C@@H]1C[C@@H](C(=O)N[C@@H]([C@H]2O[C@H](SC)[C@H](O)[C@@H](O)[C@H]2O)[C@H](C)Cl)N(C)C1` [CLINDAMYCIN], the MIC in test [1], in test [2] and in test [3] was greater than 256 µg/mL each time.

Regarding `CC[C@H]1OC(=O)[C@H](C)[C@@H](O[C@H]2C[C@@](C)(OC)[C@@H](O)[C@H](C)O2)[C@H](C)[C@@H](O[C@@H]2O[C@H](C)C[C@H](N(C)C)[C@H]2O)[C@](C)(O)C[C@@H](C)C(=O)[C@H](C)[C@@H](O)[C@]1(C)O` [ERYTHROMYCIN], the MIC in test [1], in test [2] and in test [3] was 1.5 µg/mL (≈ 2.04 µM) throughout.

Regarding `C[C@@H](O)[C@H]1C(=O)N2C(C(=O)O)=C(SCCNC=N)C[C@H]12` [IMIPENEM ANHYDROUS], the MIC in test [1], in test [2] and in test [3] was 0.75 µg/mL (≈ 2.51 µM) throughout.

As for `CCn1cc(C(=O)O)c(=O)c2ccc(C)nc21` [NALIDIXIC ACID], the MIC in test [1], in test [2] and in test [3] was 12 µg/mL (≈ 51.7 µM) each time.

For `CCn1cc(C(=O)O)c(=O)c2cc(F)c(N3CCNCC3)cc21` [NORFLOXACIN], the MIC in test [1], in test [2] and in test [3] was 6 µg/mL (≈ 18.8 µM) throughout.

As to `CN(C)[C@@H]1C(O)=C(C(N)=O)C(=O)[C@@]2(O)C(O)=C3C(=O)c4c(O)cccc4[C@@](C)(O)[C@H]3C[C@@H]12` [TETRACYCLINE], the MIC in test [1] came to 6 µg/mL (≈ 13.5 µM); in test [2] it was 6 µg/mL (≈ 13.5 µM); in test [3], 96 µg/mL (≈ 216 µM).
